Source: patent publication US9550989B2, “Rational design of microRNA-siRNA chimeras for multi-functional target suppression” (Washington University, priority 2013, dated 2017)

Key:
Type in all cases: cell-based, human
HeLa cells = assay: Transwell migration assay; details: transwell migration; for promotion of cell motility as compared to the negative control: increase by %; for cell mobility on average as compared to the control: increased to % of control
Experimental: (A) Transwell migration assays to assess changes in cell motility. (B) MTS assays to assess changes in cell proliferation.
(§1) FIG. 7 depicts images and graphs showing functional characterization of aiR-9 on cell motility and cell death. […] One representative microscope image from each assay is presented here. (B) Impact of aiR-9 on cell death. TP53 deficiency renders HCT116 cells resistance to cisplatin-induced cell death. HCT116 cells and HCT116 p53^−/− cells were treated with cisplatin (50 μM) and cell death was determined as sub-G1 population by flow cytometry analysis after DNA PI staining. Furthermore, HCT116 cells were transfected with negative control RNA, aiR-9-2 or miR-9 individually followed by cisplatin treatment, and then analyzed by flow cytometry for cell death with PI staining.
Cultured cells were resuspended and washed with PBS buffer. Fifty thousand cells in 100 μL serum-free medium were added to the upper chamber of each Transwell (24-well insert with 8 um pore size from Costar). The lower chamber was filled with 600 μL medium containing 10% bovine serum. Cells were incubated for 6 h and cells on top of the membrane were removed with a cotton-tipped swab. Cells that had migrated through the membrane were fixed and stained with Hema-3 (Fisher Scientific) for counting.

HCT116 cells = assay: Flow cytometry of cisplatin-induced cell death (sub-G1, PI staining); details: cisplatin 50 μM
Experimental: as §1
HCT116 and HCT116 p53^−/− cells were cultured in DMEM with 10% FBS. Cisplatin, DNase-free RNase and Propidum Iodide (PI) were purchased from Sigma. After treatment with cisplatin (50 μM), all cells (both floating and attached) were collected, washed once with DPBS, and then fixed with 70% ethanol on ice for at least 30 minutes. Fixed cells were washed twice with DPBS and then stained with PI solution [PI (25 μg/ml) and DNase-free RNase (100 μg/ml) diluted in PBS] at room temperature for 1 hour avoiding light exposure. Data were acquired by BD Aris FACS and analyzed using Flowing Software 2 version 2.5.0 (Finland).

TP53 = assay: Real-time RT-PCR of target mRNA; details: HeLa cells
Excerpt: FIG. 6 depicts sequences and a graph showing design and validation of aiRNA-9. (A) Sequences of three aiR-9 RNAs. […] The seed regions are underlined.

Substance | promotion of cell motility as compared to the negative control (HeLa cells) | cell mobility on average as compared to the control (HeLa cells) | cisplatin-induced cell death (sub-G1 cell population) (HCT116 cells) | suppression of TP53 expression (TP53)
miR-9: natural miRNA, SEQ ID NO:9 UCUUUGGUUAUCUAGCUGUAUGA (listed as RNA, chemistry not given here) [reference compound] | 44% | 144% |  | 
aiR-9-2: aiRNA with miR-9 seed and TP53 siRNA homology, SEQ ID NO:11 UCUUUGGUUGGGGAGAGGAGC (listed as RNA, chemistry not given here) | 57% | 157% | drastic suppression of cisplatin-induced cell death | effectively suppress
